Patent US20120004235A1, “METHODS TO TREAT CANCER” (Rutgers, The State University of New Jersey, priority 2009, published 2012)

Legend:
[1] = tested on: RPMI-8226 Human Multiple Myeloma; experiment: Human tumor cell CFU assay (Test B); format: cell-based; conditions: Homo sapiens, RPMI-8226; colony formation in agar, continuous exposure 7-9 days
Experimental: (§1) For human tumor cell CFU assays, the cell lines which grow as monolayers, MDA-MB-231, HCT116, HT29, NCI-H460, KB3-1 and KBV-1 were grown in RPMI medium (Invitrogen/Gibco, Grand Island, N.Y.) supplemented with 5% fetal bovine serum (Invitrogen/Gibco, Grand Island, NY). The RPMI-8226 cell line grows in suspension.
For human tumor cell CFU assays, RPMI-8226 cells were grown in 0.35% agar in DMEM-F12 medium supplemented with 10% fetal bovine serum over a base layer of 0.5% agar in DMEM-F12 medium supplemented with 10% fetal bovine serum
(§2) For experiments, human tumor cells (1 103) were plated in 6-well plates in medium supplemented with 5% or 10% fetal bovine serum. The compounds were tested in concentrations over the range from 0.01 to 100 nanomolar in half-log intervals covering […] along with untreated control wells. In later experiments some cases the concentration ranges were refined to focus on the region of interest in the response curves. Each compound concentration was tested in duplicate wells. Cultures were exposed to the compounds continuously for 7-9 days at 37° C. in a humidified atmosphere of 5% carbon dioxide balance air. Each experiment was performed three independent times. Colonies were defined as clusters containing 30 or more cells.
(§3) The values were expressed as the mean values with lower and upper 95% confidence intervals in nanomolar concentrations.

[2] = tested on: HT29 Human Colon Carcinoma; experiment: Human tumor cell CFU assay (Test B); format: cell-based; conditions: Homo sapiens, HT-29, colony formation, continuous exposure 7-9 days
Experimental: as §1, §2
(§4) For the monolayer cultures, colonies were visualized by staining with a preformulated crystal violet solution (Fisher Cat #291-472) which contained 0.41% crystal violet, 12% ethanol balance deionized water. To visualize the colonies, the medium was removed by aspiration; the monolayer was rinsed once with phosphate buffered saline which was removed by aspiration. Three drops of crystal violet solution was added to each well and the 6-well plate was rotated so that the crystal violet solution covered the surface area of each well. After 5 minutes exposure time, the wells were rinsed twice with phosphate buffered saline and the colonies were visible.
as §3

[3] = tested on: KBH5.0 BCRP+ KB3-1 Subline; experiment: Human tumor cell CFU assay (Test B); format: cell-based; conditions: Homo sapiens, KB 3-1, colony formation, continuous exposure 7-9 days
Experimental: as §1, §2, §4, §3

[4] = tested on: KB3-1 HeLa Human Cervical Carcinoma; experiment: Human tumor cell CFU assay (Test B); format: cell-based; conditions: Homo sapiens, colony formation, continuous exposure 7-9 days
Experimental: as §1, §2, §4, §3

[5] = tested on: NCI-H460 Human Non-small Cell Lung Carcinoma; experiment: Human tumor cell CFU assay (Test B); format: cell-based; conditions: Homo sapiens, NCI-H460, colony formation, continuous exposure 7-9 days
Experimental: as §1, §2, §4, §3

[6] = tested on: KB-V1 MDR1+ KB3-1 Subline; experiment: Human tumor cell CFU assay (Test B); format: cell-based; conditions: Homo sapiens; colony formation, continuous exposure 7-9 days
Experimental: as §1, §2, §4, §3

[7] = tested on: MDA-MB-231 Human Breast Carcinoma; experiment: Human tumor cell CFU assay (Test B); format: cell-based; conditions: Homo sapiens, MDA-MB-231, colony formation, continuous exposure 7-9 days
Experimental: as §1, §2, §4, §3

[8] = tested on: HCT116 Human Colon Carcinoma; experiment: Human tumor cell CFU assay (Test B); format: cell-based; conditions: Homo sapiens, HCT-116, colony formation, continuous exposure 7-9 days
Experimental: as §1, §2, §4, §3

[9] = tested on: Human HCT-15 Colon Tumor Xenograft Model; experiment: Test D xenograft, Compound 2 free base; format: in vivo, nu/nu mice; conditions: for Increase in Life Span (ILS) / Tumor Growth Delay T-C / Tumor Growth Inhibition T/C (tumor volume): qod × 3 for 2 cycles
[10] = Half-life in nude mice (Example 22); format: in vivo; conditions: for half-life: mouse, in vivo, nude mice
Experimental: The in vitro and in vivo activity of compound 2 and two of its metabolites (compound 5 and compound 6) were explored and compared with the activity of camptothecin Top1 inhibitors. […] In human HCT-116 colon ca, HT-29 colon ca and NCI-H460 NSCLC cells the concentration response for compound 2, compound 5 and compound 6 were the same. […]. Compound 2 was administered intravenously on a QODx3 schedule for 2 cycles.

[11] = read-out: IC50 Values (95% Lower and Upper Confidence Intervals)
[12] = read-out: IC90 Values (95% Lower and Upper Confidence Intervals)

## CNCCn1c(=O)c2cc(OC)c(OC)cc2c2cnc3cc4c(cc3c21)OCO4 [Compound 2, 8,9-dimethoxy-2,3-methylenedioxy-5-[2-(N-methylamino)ethyl]-5H-dibenzo[c,h]1,6-naphthyridin-6-one]
[1]
  IC50: 0.2 nM
  IC90: 0.8 nM
[2]; [11]
  IC50: 0.15 nM
[2]; [12]
  IC90: 0.9 nM
[3]
  IC90: 3 nM
[3]; [11]
  IC50: 1 nM
[4]
  IC50: 1.7 nM
[4]; [12]
  IC90: 7.7 nM
[5]; [11]
  IC50: 1.2 nM
[5]; [12]
  IC90: 5 nM
[6]
  IC50: 2 nM
  IC90: 8.3 nM
[7]; [11]
  IC50: 0.2 nM
[7]; [12]
  IC90: 0.7 nM
[8]; [11]
  IC50: 0.9 nM
[8]; [12]
  IC90: 2.8 nM
[9]; 1 mg/kg/day IV
  Increase in Life Span (ILS): 1.3x
  Tumor Growth Delay T-C: 14 days
  Tumor Growth Inhibition T/C (tumor volume): 37.1%
[9]; 2 mg/kg/day IV
  Increase in Life Span (ILS): 1.8x
  Tumor Growth Delay T-C: 35 days
  Tumor Growth Inhibition T/C (tumor volume): 8.6%
[9]; high dosage, IV QODx3 for 2 cycles
  maximum body weight loss: 25.7%
[10]; ip
  half-life: 10.4 h
[10]; iv
  half-life: 5.1 h
[10]; po
  half-life: 3.6 h
[10]; tumor-bearing mice, compared with nude mice
  t1/2: longer
